Measurements taken from patent US20240002391A1, “4-ALKOXYPYRROLO[2,1-F][1,2,4]TRIAZINES AND PREPARATION AND USES THEREOF” (BioSplice Therapeutics, Inc., priority 2022, published 2024).

Target: recombinant DYRK1A kinase (Homo sapiens (Human), UniProt Q13627)
Assay: DYRK1A kinase assay (Ser/Thr 18 peptide Z-lyte FRET)
Format: biochemical
Conditions: DYRK1A kinase activity, Z-lyte Ser/Thr 18 peptide, 15 μM ATP; method text calls the value IC50; read-out: EC50 (the source's name)
Method: Representative compounds were screened using the assay procedure for DYRK1A kinase activity as described below.
Each compound was dissolved in DMSO as a 10 mM stock and used to prepare compound source plates. Serial dilution (1:3, 11-point dose-response curves from 10 μM to 0.00016 μM) and compound transfer was performed using the ECHO 550 (Labcyte, Sunnyvale, CA) into 1536-well black-walled round bottom plates (Coming).
The DYRK1A kinase assay was run using the Ser/Thr 18 peptide Z-lyte assay kit according to manufacturer's instructions (Life Technologies-a Division of Thermo-Fisher). This is a non-radioactive assay using fluorescence resonance energy transfer (FRET) between coumarin and fluorescein to detect kinase activity which is represented as a ratio of coumarin emission/fluorescein emission.
Briefly, recombinant DYRK1A kinase, ATP and Ser/Thr peptide 18 were prepared in 1X Kinase buffer to final concentrations of 0.25 μg/mL, 15 μM, and 4 μM respectively. The mixture was allowed to incubate with the representative compounds for one hour at room temperature. All reactions were performed in duplicate. Unphosphorylated (“0% Control”) and phosphorylated (“100% control”) forms of Ser/Thr 18 served as control reactions. Additionally, an 11-point dose-response curve of Staurosporine (luM top) was run to serve as a positive compound control.
After incubation, Development Reagent A was diluted in Development Buffer then added to the reaction and allowed to further incubate for one hour at room temperature. The plate was read at Ex 400 Em 455 to detect the coumarin signal and Ex 400 Em 520 to measure the signal (EnVision Multilabel Plate Reader, PerkinElmer).
The Emission ratio (Em) was calculated as a ratio of the coumarin (C) emission signal (at 445 nm)/Fluorescein (F) emission signal (at 520 nm). The percent phosphorylation was then calculated using the following formula: [1−((Em ratio X F100%)-C100%)/((C0%-C100%) +(Em ratio X (F100%−F0%)))]. Dose-response curves were generated, and inhibitory concentration (IC50) values were calculated using non-linear regression curve fit in the Dotmatics' Studies Software (Bishops Stortford, UK).

IC50	Compound
1.1 nM	COc1nc(N[C@H]2CC[C@@](C)(O)CC2)nn2ccc(-c3cnc4nccn4c3)c12 [Compound 4, cis-4-((5-(Imidazo[1,2-a]pyrimidin-6-yl)-4-methoxypyrrolo[2,1-f][1,2,4]triazin-2-yl)amino)-1-methylcyclohexan-1-ol]
4.6 nM	COc1nc(N[C@H]2C[C@@](C)(O)C2)nn2ccc(-c3ccn4nccc4c3)c12 [Compound 7, cis-3-((4-Methoxy-5-(pyrazolo[1,5-a]pyridin-5-yl)pyrrolo[2,1-f][1,2,4]triazin-2-yl)amino)-1-methylcyclobutan-1-ol]
0.6 nM	COc1nc(N[C@H]2C[C@](C)(O)C2)nn2ccc(-c3ccn4nccc4c3)c12 [Compound 8, trans-3-((4-Methoxy-5-(pyrazolo[1,5-a]pyridin-5-yl)pyrrolo[2,1-f][1,2,4]triazin-2-yl)amino)-1-methylcyclobutan-1-ol]
9960 nM	COc1nc(N[C@H]2CC[C@@H](OC)CC2)nn2ccc(-c3ccn4nccc4c3)c12 [Compound 9, 4-Methoxy-N-(cis-4-methoxycyclohexyl)-5-(pyrazolo[1,5-a]pyridin-5-yl)pyrrolo[2,1-f][1,2,4]triazin-2-amine]
93.8 nM	COc1nc(N[C@H]2CC[C@H](OC)CC2)nn2ccc(-c3ccn4nccc4c3)c12 [Compound 10, 4-Methoxy-N-(trans-4-methoxycyclohexyl)-5-(pyrazolo[1,5-a]pyridin-5-yl)pyrrolo[2,1-f][1,2,4]triazin-2-amine]
5.5 nM	COc1nc(N[C@H]2CC[C@@H](OCCO)CC2)nn2ccc(-c3ccn4nccc4c3)c12 [Compound 13, 2-((cis-4-((4-Methoxy-5-(pyrazolo[1,5-a]pyridin-5-yl)pyrrolo[2,1-f][1,2,4]triazin-2-yl)amino)cyclohexyl)oxy)ethan-1-ol]
33.7 nM	COCCO[C@H]1CC[C@@H](Nc2nc(OC)c3c(-c4ccn5nccc5c4)ccn3n2)CC1 [Compound 15, 4-Methoxy-N-(cis-4-(2-methoxyethoxy)cyclohexyl)-5-(pyrazolo[1,5-a]pyridin-5-yl)pyrrolo[2,1-f][1,2,4]triazin-2-amine]
34.4 nM	COCCO[C@H]1CC[C@H](Nc2nc(OC)c3c(-c4ccn5nccc5c4)ccn3n2)CC1 [Compound 16, 4-Methoxy-N-(trans-4-(2-methoxyethoxy)cyclohexyl)-5-(pyrazolo[1,5-a]pyridin-5-yl)pyrrolo[2,1-f][1,2,4]triazin-2-amine]
17.5 nM	COc1nc(N[C@H]2CC[C@@H](NC(C)=O)CC2)nn2ccc(-c3ccn4nccc4c3)c12 [Compound 17, N-(cis-4-((4-methoxy-5-(pyrazolo[1,5-a]pyridin-5-yl)pyrrolo[2,1-f][1,2,4]triazin-2-yl)amino)cyclohexyl)acetamide]
7.4 nM	COc1nc(N[C@H]2CC[C@H](NC(C)=O)CC2)nn2ccc(-c3ccn4nccc4c3)c12 [Compound 18, N-(trans-4-((4-Methoxy-5-(pyrazolo[1,5-a]pyridin-5-yl)pyrrolo[2,1-f][1,2,4]triazin-2-yl)amino)cyclohexyl)acetamide]
14.1 nM	COc1nc(N[C@H]2CC[C@@](C)(O)CC2)nn2ccc(-c3ccn4nccc4c3)c12 [Compound 19, cis-4-((4-Methoxy-5-(pyrazolo[1,5-a]pyridin-5-yl)pyrrolo[2,1-f][1,2,4]triazin-2-yl)amino)-1-methylcyclohexan-1-ol]
14.3 nM	COc1nc(NC2CCN(CCF)CC2)nn2ccc(-c3ccn4nccc4c3)c12 [Compound 24, N-(1-(2-Fluoroethyl)piperidin-4-yl)-4-methoxy-5-(pyrazolo[1,5-a]pyridin-5-yl)pyrrolo[2,1-f][1,2,4]triazin-2-amine]
7.1 nM	COc1nc(NC2CCN(C3COC3)CC2)nn2ccc(-c3ccn4nccc4c3)c12 [Compound 26, 4-Methoxy-N-(1-(oxetan-3-yl)piperidin-4-yl)-5-(pyrazolo[1,5-a]pyridin-5-yl)pyrrolo[2,1-f][1,2,4]triazin-2-amine]
9960 nM	COc1nc(NC2CCN(C(C)=O)CC2)nn2ccc(-c3ccn4nccc4c3)c12 [Compound 27, 1-(4-((4-Methoxy-5-(pyrazolo[1,5-a]pyridin-5-yl)pyrrolo[2,1-f][1,2,4]triazin-2-yl)amino)piperidin-1-yl)ethan-1-one]
9.2 nM	COc1nc(N[C@@H]2CCNC[C@@H]2F)nn2ccc(-c3ccn4nccc4c3)c12 [Compound 29]
22.1 nM	COc1nc(N[C@H]2CCNC[C@H]2F)nn2ccc(-c3ccn4nccc4c3)c12 [Compound 30, N-((3R,4S)-3-Fluoropiperidin-4-yl)-4-methoxy-5-(pyrazolo[1,5-a]pyridin-5-yl)pyrrolo[2,1-f][1,2,4]triazin-2-amine]
7.7 nM	COc1nc(N[C@@H]2CCN(C)C[C@@H]2F)nn2ccc(-c3ccn4nccc4c3)c12 [Compound 31, N-((3S,4R)-3-fluoro-1-methylpiperidin-4-yl)-4-methoxy-5-(pyrazolo[1,5-a]pyridin-5-yl)pyrrolo[2,1-f][1,2,4]triazin-2-amine]
6.2 nM	COc1nc(N[C@H]2CCN(C)C[C@H]2F)nn2ccc(-c3ccn4nccc4c3)c12 [Compound 34, N-((3R,4S)-3-Fluoro-1-methylpiperidin-4-yl)-4-methoxy-5-(pyrazolo[1,5-a]pyridin-5-yl)pyrrolo[2,1-f][1,2,4]triazin-2-amine]
12.1 nM	COc1nc(NC2CCOCC2)nn2ccc(-c3ccn4nccc4c3)c12 [Compound 36, 4-Methoxy-5-(pyrazolo[1,5-a]pyridin-5-yl)-N-(tetrahydro-2H-pyran-4-yl)pyrrolo[2,1-f][1,2,4]triazin-2-amine]
2.5 nM	COc1nc(NC2CC3(C2)CN(C(C)=O)C3)nn2ccc(-c3ccn4nccc4c3)c12 [Compound 37, 1-(6-((4-Methoxy-5-(pyrazolo[1,5-a]pyridin-5-yl)pyrrolo[2,1-f][1,2,4]triazin-2-yl)amino)-2-azaspiro[3.3]heptan-2-yl)ethan-1-one]
2.9 nM	COc1nc(NC2CC3(CCN(C(C)=O)CC3)C2)nn2ccc(-c3ccn4nccc4c3)c12 [Compound 39, 1-(2-((4-Methoxy-5-(pyrazolo[1,5-a]pyridin-5-yl)pyrrolo[2,1-f][1,2,4]triazin-2-yl)amino)-7-azaspiro[3.5]nonan-7-yl)ethan-1-one]
1.6 nM	COc1nc(NC2CCC3(CC2)CN(C(C)=O)C3)nn2ccc(-c3ccn4nccc4c3)c12 [Compound 40, 1-(7-((4-Methoxy-5-(pyrazolo[1,5-a]pyridin-5-yl)pyrrolo[2,1-f][1,2,4]triazin-2-yl)amino)-2-azaspiro[3.5]nonan-2-yl)ethan-1-one]
9.3 nM	COc1nc(N[C@H]2CC[C@@H](OC)CC2)nn2ccc(-c3ccc4nccn4c3)c12 [Compound 45, 5-(Imidazo[1,2-a]pyridin-6-yl)-4-methoxy-N-(cis-4-methoxycyclohexyl)pyrrolo[2,1-f][1,2,4]triazin-2-amine]
2.6 nM	COc1nc(N[C@H]2CC[C@@H](OCCO)CC2)nn2ccc(-c3ccc4nccn4c3)c12 [Compound 49, 2-((cis-4-((5-(Imidazo[1,2-a]pyridin-6-yl)-4-methoxypyrrolo[2,1-f][1,2,4]triazin-2-yl)amino)cyclohexyl)oxy)ethan-1-ol]
6.7 nM	COCCO[C@H]1CC[C@@H](Nc2nc(OC)c3c(-c4ccc5nccn5c4)ccn3n2)CC1 [Compound 51, 5-(Imidazo[1,2-a]pyridin-6-yl)-4-methoxy-N-(cis-4-(2-methoxyethoxy)cyclohexyl)pyrrolo[2,1-f][1,2,4]triazin-2-amine]
5.2 nM	COCCO[C@H]1CC[C@H](Nc2nc(OC)c3c(-c4ccc5nccn5c4)ccn3n2)CC1 [Compound 52, 5-(Imidazo[1,2-a]pyridin-6-yl)-4-methoxy-N-(trans-4-(2-methoxyethoxy)cyclohexyl)pyrrolo[2,1-f][1,2,4]triazin-2-amine]
0.7 nM	COc1nc(N[C@H]2CC[C@@H](NC(C)=O)CC2)nn2ccc(-c3ccc4nccn4c3)c12 [Compound 53, N-(cis-4-((5-(Imidazo[1,2-a]pyridin-6-yl)-4-methoxypyrrolo[2,1-f][1,2,4]triazin-2-yl)amino)cyclohexyl)acetamide]
6.7 nM	COc1nc(N[C@H]2CC[C@@](C)(O)CC2)nn2ccc(-c3ccc4nccn4c3)c12 [Compound 55, cis-4-((5-(Imidazo[1,2-a]pyridin-6-yl)-4-methoxypyrrolo[2,1-f][1,2,4]triazin-2-yl)amino)-1-methylcyclohexan-1-ol]

Compound	IC50
COc1nc(N[C@H]2C[C@@H](OCCO)C2)nn2ccc(-c3ccn4nccc4c3)c12 [Compound 6, 2-(cis-3-((4-Methoxy-5-(pyrazolo[1,5-a]pyridin-5-yl)pyrrolo[2,1-f][1,2,4]triazin-2-yl)amino)cyclobutoxy)ethan-1-ol]	1.1 nM
